Where a name gives a salt, the structure may show the parent alone.

Data on 39 molecules can be found in patent US8802664B2 (Bioproject, priority 2010, dated 2014).

Test system in one series: not given
Assay: not given
Turning to `CN1CCC(OC(c2cccc(OCCCCCN)c2)c2nc3ccccc3s2)CC1` (stereo not drawn) (as salt: oxalate) [Example 371, 5-{3-[benzothiazol-2-yl(1-methylpiperidin-4-yloxy)methyl]phenoxy}pentylamine], the melting point was found to be 141 °C.

Molecule `Cc1ccc(C(OC2CCN(C)CC2)c2nc3ccccc3s2)s1` (stereo not drawn) (as salt: oxalate) [Example 19, 2-[(1-methylpiperidin-4-yloxy)(5-methylthiophen-2-yl)methyl]benzothiazole] registered a melting point of 174 °C.

In turn, `CCCCOc1cccc(C(NC2CCN(C)CC2)c2nc3ccccc3s2)c1` (stereo not drawn) (as salt: oxalate) [Example 91, [benzothiazol-2-yl(3-butoxyphenyl)methyl](1-methylpiperidin-4-yl)amine] had a melting point of 176 °C. Regarding `CN1CCC(OC(c2nc3cccc(F)c3[nH]2)c2cc(OC(F)(F)F)ccc2F)CC1` (stereo not drawn) (as salt: oxalate) [Example 529], the melting point was determined as 135 °C. In the case of `CN1CCC(OC(c2cccc(SCCCCCCO)c2)c2nc3ccccc3s2)CC1` (stereo not drawn) (as salt: oxalate) [Example 292, 6-{3-[benzothiazol-2-yl(1-methylpiperidin-4-yloxy)methyl]phenylsulfanyl}hexan-1-ol], the melting point is 80 °C.

The target of the next series is T1, human H4 receptor (Homo sapiens, UniProt Q9H3N8).
T1 construct: expressed in transfected cells
T1 sequence (Q9H3N8 whole entry): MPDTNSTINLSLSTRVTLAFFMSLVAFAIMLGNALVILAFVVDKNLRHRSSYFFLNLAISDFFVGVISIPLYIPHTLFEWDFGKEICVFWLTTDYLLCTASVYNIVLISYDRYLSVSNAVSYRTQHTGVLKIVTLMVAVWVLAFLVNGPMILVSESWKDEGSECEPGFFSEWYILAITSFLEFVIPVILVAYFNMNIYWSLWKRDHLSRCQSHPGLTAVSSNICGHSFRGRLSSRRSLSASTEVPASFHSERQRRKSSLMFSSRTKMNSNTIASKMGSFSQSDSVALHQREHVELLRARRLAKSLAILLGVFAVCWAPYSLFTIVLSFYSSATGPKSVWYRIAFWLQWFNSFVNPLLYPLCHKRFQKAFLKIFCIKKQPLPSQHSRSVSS
The series can be described thus: [3H]Histamine binding on membranes of CHO cells stably expressing human H4 receptor. The method in brief: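 Nonspecific signal was taken as that remaining with 10 μM JNJ 7777120 present. Assays contained 20 μg CHO-derived hH4 membrane protein in Tris/HCl–EDTA buffer (pH 7.4) and were terminated on polyethyleneimine-soaked filters, with bound tritium quantified by scintillation.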
Consider `CN1CCC(OC(c2cccc(SCCN)c2)c2nc3ccccc3[nH]2)CC1` (stereo not drawn) [Example 249, 2-{3-[(1H-benzimidazol-2-yl)(1-methylpiperidin-4-yloxy)methyl]phenylsulfanyl}ethylamine], for which the Ki or IC50 activity class is less than 300 nM. On to `Cc1ccc(C(OC2CCN(C)CC2)c2nc3ccccc3s2)s1` (stereo not drawn) [Example 19, 2-[(1-methylpiperidin-4-yloxy)(5-methylthiophen-2-yl)methyl]benzothiazole], for which the Ki or IC50 activity class is less than 300 nM. Still for that read-out and setting: to `CN1CCC(OC(c2ccccc2)c2nc3ccccc3s2)C1` (stereo not drawn) [Example 2, 2-[(1-methylpyrrolidin-3-yloxy)phenyl-methyl]benzothiazole] belongs less than 1000 nM.

In turn, `Cc1cc(F)c(C(OC2CCN(C)CC2)c2nc3ccccc3[nH]2)c(F)c1` (single isomer, unassigned) [Example 559, 2-[(2,6-difluoro-4-methylphenyl)(1-methylpiperidin-4-yloxy)methyl]-1H-benzimidazole] registered a Ki or IC50 activity class of less than 30 nM. Consider `CN1CCC(OC(c2cccc(OCC=CCO)c2)c2nc3ccccc3s2)CC1` (stereo not drawn) [Example 422, 4-{3-[benzothiazol-2-yl(1-methylpiperidin-4-yloxy)methyl]phenoxy}but-2-en-1-ol], for which the Ki or IC50 activity class was less than 30 nM. The same measure, in the same setting: to `CSCc1cccc(C(OC2CCN(C)CC2)c2nc3ccccc3[nH]2)c1` (stereo not drawn) [Example 528, 2-[(1-methylpiperidin-4-yloxy)(3-methylsulfanylmethylphenyl)methyl]-1H-benzimidazole] belongs less than 300 nM. Still for that read-out and setting: the value for `CN1CCC(OC(c2cccc(C#CCCNC(=N)N)c2)c2nc3ccccc3s2)CC1` (stereo not drawn) [Example 372, N-(4-{3-[benzothiazol-2-yl(1-methylpiperidin-4-yloxy)methyl]phenyl}but-3-ynyl)guanidine] was less than 30 nM. For `CN1CCC(NC(c2cccc(OCCCC3(C)OCCO3)c2)c2nc3ccccc3[nH]2)CC1` (stereo not drawn) [Example 174, ((1H-benzimidazol-2-yl)-{3-[3-(2-methyl-[1,3]dioxolan-2-yl)-propoxy]phenyl}methyl)(1-methylpiperidin-4-yl)amine], the Ki or IC50 activity class is less than 300 nM.

Molecule `CN1CCC(OC(c2cccc(OCC3CCCNC3)c2)c2nc3ccccc3s2)CC1` (stereo not drawn) [Example 378, 2-{(1-methylpiperidin-4-yloxy)[3-(piperidin-3-ylmethoxy)phenyl]methyl}benzothiazole] registered a Ki or IC50 activity class of less than 1000 nM.

`CN1CCC(OC(c2cccc(CCc3c[nH]cn3)c2)c2nc3ccccc3[nH]2)CC1` (stereo not drawn) [Example 412, 2-[{3-[2-(1H-imidazol-4-yl)ethyl]phenyl}(1-methylpiperidin-4-yloxy)methyl]-1H-benzimidazole]: the Ki or IC50 activity class was less than 1000 nM. Turning to `CN1CCC(OC(c2cccc(C#CCCCNC(=N)NC(=O)OC(C)(C)C)c2)c2nc3ccccc3[nH]2)CC1` (stereo not drawn) [Example 357, N-tert-butoxycarbonyl-N′-(5-{3-[(1H-benzimidazol-2-yl)(1-methylpiperidin-4-yloxy)methyl]phenyl}pent-4-ynyl)guanidine], the Ki or IC50 activity class is less than 300 nM. `CN1CCC(NC(c2ccccc2)c2nc3ccccc3s2)CC1` (stereo not drawn) [Example 9, (benzothiazol-2-yl-phenylmethyl)(1-methylpiperidin-4-yl)amine] gave a Ki or IC50 activity class of less than 30 nM.

As for `CN1CCC(OC(c2cccc(SCCO)c2)c2nc3ccccc3s2)CC1` (stereo not drawn) [Example 158, 2-{3-[benzothiazol-2-yl(1-methylpiperidin-4-yloxy)methyl]phenylsulfanyl}ethanol], the Ki or IC50 activity class is less than 30 nM. Same read-out and setting: the value for `CN1CCC(COC(c2cccc(Br)c2)c2nc3ccccc3s2)C1` (stereo not drawn) [Example 465] was less than 30 nM. Molecule `C=CCOc1cccc(C(NC2CCN(C)CC2)c2nc3ccccc3[nH]2)c1` (stereo not drawn) [Example 112, [(3-allyloxyphenyl)(1H-benzimidazol-2-yl)methyl](1-methylpiperidin-4-yl)amine] displayed a Ki or IC50 activity class of less than 1000 nM. For the molecule `CN1CCC(OC(c2cccc(C#CCCCCN)c2)c2nc3ccccc3[nH]2)CC1` (stereo not drawn) [Example 337, 6-{3-[(1H-benzimidazol-2-yl)(1-methylpiperidin-4-yloxy)methyl]phenyl}hex-5-ynylamine], the Ki or IC50 activity class was less than 30 nM. `Cc1ccc(C(OC2CCN(C)CC2)c2nc3ccccc3[nH]2)c(Cl)c1` (stereo not drawn) [Example 213, 2-[(2-chloro-4-methylphenyl)(1-methylpiperidin-4-yloxy)methyl]-1H-benzimidazole] had a Ki or IC50 activity class of less than 300 nM.

The molecule `CC(=O)COCC#Cc1cccc(C(OC2CCN(C)CC2)c2nc3ccccc3s2)c1` (stereo not drawn) [Example 275, 1-(3-{3-[benzothiazol-2-yl(1-methylpiperidin-4-yloxy)methyl]phenyl}prop-2-ynyloxy)-propan-2-one] came in with a Ki or IC50 activity class of less than 300 nM. Consider `CN1CCC(OC(c2cccc(OCCC(F)(F)F)c2)c2nc3ccccc3s2)CC1` (stereo not drawn) [Example 178, 2-{(1-methylpiperidin-4-yloxy)[3-(3,3,3-trifluoro-propoxy)phenyl]methyl}benzothiazole], for which the Ki or IC50 activity class is less than 300 nM. The molecule `CN1CCC(OC(c2cccc(SCCn3nccn3)c2)c2nc3ccccc3s2)CC1` (stereo not drawn) [Example 240, 2-{(1-methylpiperidin-4-yloxy)[3-(2-[1,2,3]triazol-2-yl-ethylsulfanyl)phenyl]methyl}benzothiazole] gave a Ki or IC50 activity class of less than 300 nM. With `CN1CCC(OC(c2cccc(SCC(O)CO)c2)c2nc3ccccc3[nH]2)CC1` (stereo not drawn) [Example 288, 3-{3-[(1H-benzimidazol-2-yl)(1-methylpiperidin-4-yloxy)methyl]phenylsulfanyl}propane-1,2-diol], the Ki or IC50 activity class was less than 1000 nM. Regarding `CN1CCC(OC(c2cccc(-c3cccc(F)c3)c2)c2nc3ccccc3s2)CC1` (stereo not drawn) [Example 139, 2-[(3′-fluorobiphenyl-3-yl)(1-methylpiperidin-4-yloxy)methyl]benzothiazole], the Ki or IC50 activity class is less than 30 nM. `CN1CCC(OC(c2cccc(CO)c2)c2nc3ccccc3s2)CC1` (stereo not drawn) [Example 207, {3-[benzothiazol-2-yl(1-methylpiperidin-4-yloxy)methyl]phenyl}methanol]: the Ki or IC50 activity class is less than 1000 nM.

The molecule `CNCCOc1cccc(C(OC2CCN(C)CC2)c2nc3ccccc3s2)c1` (stereo not drawn) [Example 279, (2-{3-[benzothiazol-2-yl(1-methylpiperidin-4-yloxy)methyl]phenoxy}ethyl)methyl-amine] came in with a Ki or IC50 activity class of less than 1000 nM. Same read-out and setting: the value for `CN1CCC(OC(c2cccc(C(=O)N(C)c3ccccc3)c2)c2nc3ccccc3s2)CC1` (stereo not drawn) [Example 223, 3-[benzothiazol-2-yl(1-methylpiperidin-4-yloxy)methyl]-N-methyl-N-phenylbenzamide] was less than 300 nM; that for `CN1CCC(OC(c2cccc(CCCCNC(=N)N)c2)c2nc3ccccc3s2)CC1` (stereo not drawn) [Example 374, N-(4-{3-[benzothiazol-2-yl(1-methylpiperidin-4-yloxy)methyl]phenyl}butyl)guanidine] was less than 30 nM.

The molecule `Brc1cccc(C(OCC2CNC2)c2nc3ccccc3[nH]2)c1` (stereo not drawn) [Example 502] registered a Ki or IC50 activity class of less than 1000 nM. Regarding `COc1ccc(F)c(C(OCC2CCN(C)C2)c2nc3ccccc3[nH]2)c1` (stereo not drawn) [Example 504], the Ki or IC50 activity class is less than 30 nM. Still for that read-out and setting: the value for `CN1CCC(OC(c2cccc(N3CCC(N)CC3)c2)c2nc3ccccc3s2)CC1` (stereo not drawn) [Example 405, 1-{3-[benzothiazol-2-yl(1-methylpiperidin-4-yloxy)methyl]phenyl}piperidin-4-ylamine] was less than 300 nM. For the molecule `CCOC(=O)c1cccc(C(OC2CCN(C)CC2)c2nc3ccccc3s2)c1` (stereo not drawn) [Example 206, 3-[benzothiazol-2-yl(1-methylpiperidin-4-yloxy)methyl]benzoic acid ethyl ester], the Ki or IC50 activity class was less than 300 nM.

For the molecule `CN1CCC(OC(c2cccc(N3CCCC3CO)c2)c2nc3ccccc3s2)CC1` (stereo not drawn) [Example 324, (1-{3-[benzothiazol-2-yl(1-methylpiperidin-4-yloxy)methyl]phenyl}pyrrolidin-2-yl)methanol], the Ki or IC50 activity class is less than 300 nM. In the case of `COC(=O)CSc1cccc(C(OC2CCN(C)CC2)c2nc3ccccc3s2)c1` (stereo not drawn) [Example 160, {3-[benzothiazol-2-yl(1-methylpiperidin-4-yloxy)methyl]phenylsulfanyl}acetic acid methyl ester], the Ki or IC50 activity class was less than 30 nM.

In the case of `CN1CCC(OC(c2cccc(SC(C)(C)C)c2)c2nc3ccccc3[nH]2)CC1` (stereo not drawn) [Example 215, 2-[(3-tert-butylsulfanylphenyl)(1-methylpiperidin-4-yloxy)methyl]-1H-benzimidazole], the Ki or IC50 activity class is less than 300 nM. Same read-out and setting: to `CN1CCC(OC(c2ccc(Cl)cc2)c2nc3ccccc3s2)CC1` (stereo not drawn) [Example 4, 2-[(4-chlorophenyl)(1-methylpiperidin-4-yloxy)methyl]benzothiazole] belongs less than 1000 nM.
